From the NIST ThermoML archive (doi:10.1021/acs.jced.9b00560) come the findings set out here.

Numbers after ± are expanded uncertainties.

The conditions of series [1]: Crystal; DSC.
Series [2] can be described thus: Molar enthalpy of transition or fusion. The note with it: Crystal; DSC.

On to `O=C1C=CC(=O)N1c1ccccc1Br` [1-(2-bromophenyl)-pyrrole-2,5-dione], for which the Triple point temperature in series [1] is recorded as 357.24 ± 1.2 K. Also, the “Molar enthalpy of transition or fusion” value in series [2] was determined as 4.57 ± 0.215 kcal/mol.
